Earlier results in patent publication US10980860B2, “Diagnosis, prevention and treatment of diseases of the joint” (Ascendis Pharma A/S, priority 2012, dated 2021).

Tested on: osteoarthritis
Settings: injection into the joint; Chevalier et al, J. Rheumatol 32 (2005); cited from earlier work

For “IL-1ra: IL-1ra (Anakinra, Kineret®, Swedish Orphan Biovitrum AB)”, the “Reduction of symptoms of osteoarthritis” value is given as “not significantly reducing the symptoms of osteoarthritis”.
